Experimental data from patent publication US20250213555A1, “SUBSTITUTED TETRAHYDROFURAN ANALOGS AS MODULATORS OF SODIUM CHANNELS” (VERTEX PHARMACEUTICALS INCORPORATED, priority 2021, published 2025).

Target: human Nav 1.8 (Homo sapiens, UniProt Q9Y5Y9)
Assay: E-VIPR assay detecting and measuring Nav inhibition properties
Type: cell-based
Conditions: HEK cells expressing a truncated form of human Nav 1.8; compound numbers without "*" (not marked as run in the presence of human serum); read-out: measured IC50 value in the E-VIPR Assay
Summary of the method: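 Nav inhibition was read by E-VIPR: cells were electrically stimulated while coumarin/oxonol FRET emissions were recorded. Cells were HEK expressing a truncated human Nav 1.8 and co-transduced with KIR2.1, and were assayed in 25% final human serum.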

Sequence of human Nav 1.8 (Q9Y5Y9 126-399 limits assumed): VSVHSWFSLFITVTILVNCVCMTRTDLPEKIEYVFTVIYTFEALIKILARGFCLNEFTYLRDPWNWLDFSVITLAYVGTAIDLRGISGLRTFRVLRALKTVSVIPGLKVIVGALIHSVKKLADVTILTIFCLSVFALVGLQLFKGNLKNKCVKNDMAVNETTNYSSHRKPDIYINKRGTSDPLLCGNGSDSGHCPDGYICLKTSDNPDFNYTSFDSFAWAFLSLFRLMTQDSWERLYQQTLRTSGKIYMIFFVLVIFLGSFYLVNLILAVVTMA
Sequence of human Nav 1.8 (Q9Y5Y9 660-890 limits assumed): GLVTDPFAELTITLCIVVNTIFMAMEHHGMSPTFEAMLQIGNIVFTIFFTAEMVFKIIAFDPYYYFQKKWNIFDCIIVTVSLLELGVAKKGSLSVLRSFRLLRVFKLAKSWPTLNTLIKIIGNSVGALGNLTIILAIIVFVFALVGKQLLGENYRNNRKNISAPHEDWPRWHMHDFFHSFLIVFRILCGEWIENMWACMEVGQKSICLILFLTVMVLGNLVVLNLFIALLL
Sequence of human Nav 1.8 (Q9Y5Y9 1148-1722 limits assumed): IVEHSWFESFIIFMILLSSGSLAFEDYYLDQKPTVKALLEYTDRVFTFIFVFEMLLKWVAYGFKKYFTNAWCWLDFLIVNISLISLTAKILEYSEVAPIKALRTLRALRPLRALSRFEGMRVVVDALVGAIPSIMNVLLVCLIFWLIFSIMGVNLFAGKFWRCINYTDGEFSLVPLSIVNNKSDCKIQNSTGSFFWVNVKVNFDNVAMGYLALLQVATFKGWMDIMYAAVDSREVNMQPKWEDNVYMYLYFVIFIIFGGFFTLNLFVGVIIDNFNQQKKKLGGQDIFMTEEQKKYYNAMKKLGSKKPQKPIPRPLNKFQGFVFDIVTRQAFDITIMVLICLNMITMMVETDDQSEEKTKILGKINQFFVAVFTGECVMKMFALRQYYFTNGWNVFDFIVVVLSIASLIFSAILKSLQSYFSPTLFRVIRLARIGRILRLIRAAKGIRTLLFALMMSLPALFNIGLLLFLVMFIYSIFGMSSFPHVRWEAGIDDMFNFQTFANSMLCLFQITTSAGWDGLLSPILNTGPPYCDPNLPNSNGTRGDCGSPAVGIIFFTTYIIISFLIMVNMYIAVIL

| Compound | IC50 |
| --- | --- |
| COc1c([C@H]2[C@H](C(=O)Nc3cc(C(=O)N4CCNCC4)ncc3F)O[C@@](C)(C(F)(F)F)[C@H]2C)ccc(F)c1F [Compound 16, (2R,3S,4S,5R)-3-(3,4-difluoro-2-methoxy-phenyl)-N-[5-fluoro-2-(piperazine-1-carbonyl)-4-pyridyl]-4,5-dimethyl-5-(trifluoromethyl)tetrahydrofuran-2-carboxamide] | 10 to 100 nM |
| COc1c([C@H]2[C@H](C(=O)Nc3cccc(C(=O)N4CCNCC4)n3)O[C@@](C)(C(F)(F)F)[C@H]2C)ccc(F)c1F [Compound 17, (2R,3S,4S,5R)-3-(3,4-difluoro-2-methoxyphenyl)-4,5-dimethyl-N-(6-(piperazine-1-carbonyl)pyridin-2-yl)-5-(trifluoromethyl)tetrahydrofuran-2-carboxamide] | 10 to 100 nM |
| COc1c([C@H]2[C@H](C(=O)Nc3cc(C(=O)N4CCNCC4)ccn3)O[C@@](C)(C(F)(F)F)[C@H]2C)ccc(F)c1F [Compound 18, (2R,3S,4S,5R)-3-(3,4-difluoro-2-methoxyphenyl)-4,5-dimethyl-N-(4-(piperazine-1-carbonyl)pyridin-2-yl)-5-(trifluoromethyl)tetrahydrofuran-2-carboxamide] | 10 to 100 nM |
| COc1c([C@H]2[C@H](C(=O)Nc3ccnc(C(=O)N4CCNCC4)n3)O[C@@](C)(C(F)(F)F)[C@H]2C)ccc(F)c1F [Compound 19, (2R,3S,4S,5R)-3-(3,4-difluoro-2-methoxyphenyl)-4,5-dimethyl-N-(2-(piperazine-1-carbonyl)pyrimidin-4-yl)-5-(trifluoromethyl)tetrahydrofuran-2-carboxamide] | 10 to 100 nM |
| COc1c([C@H]2[C@H](C(=O)Nc3nccc(C(=O)N4CCNCC4)n3)O[C@@](C)(C(F)(F)F)[C@H]2C)ccc(F)c1F [Compound 20, (2R,3S,4S,5R)-3-(3,4-difluoro-2-methoxyphenyl)-4,5-dimethyl-N-(4-(piperazine-1-carbonyl)pyrimidin-2-yl)-5-(trifluoromethyl)tetrahydrofuran-2-carboxamide] | 10 to 100 nM |
| COc1c([C@H]2[C@H](C(=O)Nc3cc(C(=O)N4CCNCC4)ncn3)O[C@@](C)(C(F)(F)F)[C@H]2C)ccc(F)c1F [Compound 21, (2R,3S,4S,5R)-3-(3,4-difluoro-2-methoxyphenyl)-4,5-dimethyl-N-(6-(piperazine-1-carbonyl)pyrimidin-4-yl)-5-(trifluoromethyl)tetrahydrofuran-2-carboxamide] | 10 to 100 nM |
| COc1c([C@H]2[C@H](C(=O)Nc3cc(C(=O)N4CCN(C)CC4)ncn3)O[C@@](C)(C(F)(F)F)[C@H]2C)ccc(F)c1F [Compound 22, (2R,3S,4S,5R)-3-(3,4-difluoro-2-methoxyphenyl)-4,5-dimethyl-N-(6-(4-methylpiperazine-1-carbonyl)pyrimidin-4-yl)-5-(trifluoromethyl)tetrahydrofuran-2-carboxamide] | 100 to 1000 nM |
| COc1c([C@H]2[C@H](C(=O)Nc3cc(C(N)=O)ncc3[Si](C)(C)C)O[C@@](C)(C(F)(F)F)[C@H]2C)ccc(F)c1F [Compound 23, 4-((2R,3S,4S,5R)-3-(3,4-difluoro-2-methoxyphenyl)-4,5-dimethyl-5-(trifluoromethyl)tetrahydrofuran-2-carboxamido)-5-(trimethylsilyl)picolinamide] | 100 to 1000 nM |
| CNC(=O)c1cc(NC(=O)[C@@H]2O[C@@](C)(C(F)(F)F)[C@@H](C)[C@H]2c2ccc(F)c(F)c2OCCO)ccn1 [Compound 38, 4-((2R,3S,4S,5R)-3-(3,4-difluoro-2-(2-hydroxyethoxy)phenyl)-4,5-dimethyl-5-(trifluoromethyl)tetrahydrofuran-2-carboxamido)-N-methylpicolinamide] | < 10 nM |
| C[C@@H](COc1c([C@H]2[C@H](C(=O)Nc3ccnc(C(N)=O)c3)O[C@@](C)(C(F)(F)F)[C@H]2C)ccc(F)c1F)N1CC2(COC2)C1 [Compound 40, 4-((2R,3S,4S,5R)-3-(2-((S)-2-(2-oxa-6-azaspiro[3.3]heptan-6-yl)propoxy)-3,4-difluorophenyl)-4,5-dimethyl-5-(trifluoromethyl)tetrahydrofuran-2-carboxamido)picolinamide] | < 10 nM |
| CNC(=O)c1cc(NC(=O)[C@@H]2O[C@@](C)(C(F)(F)F)[C@@H](C)[C@H]2c2ccc(F)c(F)c2OC[C@@H](C)N2CC3(COC3)C2)ccn1 [Compound 41, 4-((2R,3S,4S,5R)-3-(2-((R)-2-(2-oxa-6-azaspiro[3.3]heptan-6-yl)propoxy)-3,4-difluorophenyl)-4,5-dimethyl-5-(trifluoromethyl)tetrahydrofuran-2-carboxamido)-N-methylpicolinamide] | 100 to 1000 nM |
| C[C@H](COc1c([C@H]2[C@H](C(=O)Nc3ccnc(C(N)=O)c3)O[C@@](C)(C(F)(F)F)[C@H]2C)ccc(F)c1F)N1CC2(COC2)C1 [Compound 42, 4-((2R,3S,4S,5R)-3-(2-((R)-2-(2-oxa-6-azaspiro[3.3]heptan-6-yl)propoxy)-3,4-difluorophenyl)-4,5-dimethyl-5-(trifluoromethyl)tetrahydrofuran-2-carboxamido)picolinamide] | 10 to 100 nM |
| CNC(=O)c1cc(NC(=O)[C@@H]2O[C@@](C)(C(F)(F)F)[C@@H](C)[C@H]2c2ccc(F)c(F)c2OC[C@H](C)N2CC3(COC3)C2)ccn1 [Compound 43, 4-((2R,3S,4S,5R)-3-(2-((S)-2-(2-oxa-6-azaspiro[3.3]heptan-6-yl)propoxy)-3,4-difluorophenyl)-4,5-dimethyl-5-(trifluoromethyl)tetrahydrofuran-2-carboxamido)-N-methylpicolinamide] | < 10 nM |
| C[C@H]1[C@@H](c2ccc(F)c(F)c2OCCN(C)C)[C@H](C(=O)Nc2ccnc(C(N)=O)c2)O[C@@]1(C)C(F)(F)F [Compound 44, 4-((2R,3S,4S,5R)-3-(2-(2-(dimethylamino)ethoxy)-3,4-difluorophenyl)-4,5-dimethyl-5-(trifluoromethyl)tetrahydrofuran-2-carboxamido) picolinamide] | 10 to 100 nM |
| C[C@H]1[C@@H](c2ccc(F)c(F)c2OCCn2ccnc2)[C@H](C(=O)Nc2ccnc(C(N)=O)c2)O[C@@]1(C)C(F)(F)F [Compound 45, 4-((2R,3S,4S,5R)-3-(2-(2-(1H-imidazol-1-yl)ethoxy)-3,4-difluorophenyl)-4,5-dimethyl-5-(trifluoromethyl)tetrahydrofuran-2-carboxamido)picolinamide] | < 10 nM |
| COC1(C)CN(CCOc2c([C@H]3[C@H](C(=O)Nc4ccnc(C(N)=O)c4)O[C@@](C)(C(F)(F)F)[C@H]3C)ccc(F)c2F)C1 [Compound 48, 4-((2R,3S,4S,5R)-3-(3,4-difluoro-2-(2-(3-methoxy-3-methylazetidin-1-yl)ethoxy)phenyl)-4,5-dimethyl-5-(trifluoromethyl)tetrahydrofuran-2-carboxamido)picolinamide] | 10 to 100 nM |
| C[C@H]1[C@@H](c2ccc(F)c(F)c2OCCN2CC[C@H](F)C2)[C@H](C(=O)Nc2ccnc(C(N)=O)c2)O[C@@]1(C)C(F)(F)F [Compound 49, 4-((2R,3S,4S,5R)-3-(3,4-difluoro-2-(2-((S)-3-fluoropyrrolidin-1-yl)ethoxy)phenyl)-4,5-dimethyl-5-(trifluoromethyl)tetrahydrofuran-2-carboxamido)picolinamide] | 10 to 100 nM |
| C[C@H]1[C@@H](c2ccc(F)c(F)c2OCCN2CCOC3CC32)[C@H](C(=O)Nc2ccnc(C(N)=O)c2)O[C@@]1(C)C(F)(F)F (stereo partly drawn) [Compound 50, 4-((2R,3S,4S,5R)-3-(2-(2-(2-oxa-5-azabicyclo[4.1.0]heptan-5-yl)ethoxy)-3,4-difluorophenyl)-4,5-dimethyl-5-(trifluoromethyl)tetrahydrofuran-2-carboxamido)picolinamide] | < 10 nM |
| CC1CN(CCOc2c([C@H]3[C@H](C(=O)Nc4ccnc(C(N)=O)c4)O[C@@](C)(C(F)(F)F)[C@H]3C)ccc(F)c2F)CCO1 (stereo partly drawn) [Compound 51, 4-((2R,3S,4S,5R)-3-(3,4-difluoro-2-(2-(2-methylmorpholino)ethoxy)phenyl)-4,5-dimethyl-5-(trifluoromethyl)tetrahydrofuran-2-carboxamido)picolinamide] | < 10 nM |
| COC1CN(CCOc2c([C@H]3[C@H](C(=O)Nc4ccnc(C(N)=O)c4)O[C@@](C)(C(F)(F)F)[C@H]3C)ccc(F)c2F)C1 [Compound 52, 4-((2R,3S,4S,5R)-3-(3,4-difluoro-2-(2-(3-methoxyazetidin-1-yl)ethoxy)phenyl)-4,5-dimethyl-5-(trifluoromethyl)tetrahydrofuran-2-carboxamido)picolinamide] | < 10 nM |
| C[C@H]1[C@@H](c2ccc(F)c(F)c2OCCN2CC3(COC3)C2)[C@H](C(=O)Nc2ccnc(C(N)=O)c2)O[C@@]1(C)C(F)(F)F [Compound 53, 4-((2R,3S,4S,5R)-3-(2-(2-(2-oxa-6-azaspiro[3.3]heptan-6-yl)ethoxy)-3,4-difluorophenyl)-4,5-dimethyl-5-(trifluoromethyl)tetrahydrofuran-2-carboxamido)picolinamide] | < 10 nM |
| C[C@H]1[C@@H](c2ccc(F)c(F)c2OCCN2CCC2)[C@H](C(=O)Nc2ccnc(C(N)=O)c2)O[C@@]1(C)C(F)(F)F [Compound 54, 4-((2R,3S,4S,5R)-3-(2-(2-(azetidin-1-yl)ethoxy)-3,4-difluorophenyl)-4,5-dimethyl-5-(trifluoromethyl)tetrahydrofuran-2-carboxamido)picolinamide] | 10 to 100 nM |
| C[C@H]1[C@@H](c2ccc(F)c(F)c2OCCN2C[C@H]3COC[C@H]3C2)[C@H](C(=O)Nc2ccnc(C(N)=O)c2)O[C@@]1(C)C(F)(F)F [Compound 55, 4-((2R,3S,4S,5R)-3-(3,4-difluoro-2-(2-((3aR,6aS)-tetrahydro-1H-furo[3,4-c]pyrrol-5(3H)-yl)ethoxy)phenyl)-4,5-dimethyl-5-(trifluoromethyl)tetrahydrofuran-2-carboxamido)picolinamide] | < 10 nM |
| C[C@@H]1COCCN1CCOc1c([C@H]2[C@H](C(=O)Nc3ccnc(C(N)=O)c3)O[C@@](C)(C(F)(F)F)[C@H]2C)ccc(F)c1F [Compound 56, 4-((2R,3S,4S,5R)-3-(3,4-difluoro-2-(2-((R)-3-methylmorpholino)ethoxy)phenyl)-4,5-dimethyl-5-(trifluoromethyl)tetrahydrofuran-2-carboxamido)picolinamide] | < 10 nM |
